Read-outs that look alike come from different tables or passages of the source.
Tested on: Bacillus megaterium strain H491
Experiment: Chemical sensitivity, Biolog Phenotypic Microarray
Assay type: cell-based
[1] = Biolog Phenotypic Microarray, 25° C.

Row | SMILES | H491 susceptible to compound [1] | H491 susceptible to compound
1 | CC(C)NCC(O)COc1cccc2ccccc12 (racemic) [D,L-Propanolol] | susceptible | 
2 | O=C(O)CCCCC1CCSS1 (racemic) [D,L-Thioctic acid] | susceptible | 
3 | O.c1cnc2c(c1)ccc1cccnc12 [1,10-Phenanthroline Monohydrate] | susceptible | 
4 | On1ccccc1=S [1-Hydroxypyridine-2-thione] | susceptible | 
5 | c1ccc(-c2ccccn2)nc1 [2,2′-Dipyridyl] | susceptible | 
6 | CC(C)c1nc2nc(N)nc(N)c2nc1C(C)C [2,4-Diamino-6,7-diisopropylpteridine] | susceptible | 
7 | O=[N+]([O-])c1ccc(O)c([N+](=O)[O-])c1 [2,4-Dintrophenol] | susceptible | 
8 | O=[N+]([O-])c1ncc[nH]1 [2-Nitroimidazole] | susceptible | 
9 | Oc1ccccc1-c1ccccc1 [2-Phenylphenol] | susceptible | 
10 | O=C(O)c1cc([N+](=O)[O-])cc([N+](=O)[O-])c1 [3,5-Dinitrobenzoic acid] | susceptible | 
11 | Nc1nc[nH]n1 [3-Amino-1,2,4-triazole] | susceptible | 
12 | Cc1cc(O)cc(C)c1Cl [4-Chloro-3,5-dimethyl-phenol] | susceptible | 
13 | O=c1cc(O)c2ccccc2o1 [4-Hydroxycoumarin] | susceptible | 
14 | Cc1ccc2c(Cl)cc(Cl)c(O)c2n1 [5,7-Dichloro-8-hydroxyquinaldine] | susceptible | 
15 | Oc1c(Cl)cc(Cl)c2cccnc12 [5,7-Dichloro-8-hydroxyquinoline] | susceptible | 
16 | Oc1c(I)cc(Cl)c2cccnc12 [5-Chloro-7-iodo-8-hydroxy-quinoline] | susceptible | 

Row | SMILES | H491 susceptible to compound [1] | H491 susceptible to compound
17 | C[C@H]1O[C@@H](n2cc(F)c(=O)[nH]c2=O)[C@H](O)[C@@H]1O [5-Fluoro-5′-deoxyuridine] | susceptible | 
18 | O=C(O)c1[nH]c(=O)[nH]c(=O)c1F [5-Fluoroorotic acid] | susceptible | 
19 | O=c1[nH]cc(F)c(=O)[nH]1 [5-Fluorouracil] | susceptible | 
20 | NC(=O)NN=Cc1ccc([N+](=O)[O-])o1 [5-Nitro-2-furaldehyde semicarbazone] | susceptible | 
21 | O.Sc1ncnc2nc[nH]c12 [6-Mercaptopurine monohydrate] | susceptible | 
22 | Oc1cccc2cccnc12 [8-Hydroxyquinoline] |  | susceptible
23 | CCCCC(CC)CNC(=N)NC(=N)NCCCCCCNC(=N)NC(=N)NCC(CC)CCCC (centres unmarked) [Alexidine] | susceptible | 
24 | CN(C)CCC=C1c2ccccc2CCc2ccccc21 [Amitriptyline] | susceptible | 
25 | CC1(C)S[C@@H]2[C@H](NC(=O)[C@H](N)c3ccc(O)cc3)C(=O)N2[C@H]1C(=O)O [Amoxicillin] | susceptible | 
26 | [Cl][Sb]([Cl])[Cl] [Antimony (III) chloride] | susceptible | 
27 | CN[C@@H]1[C@@H](O[C@H]2O[C@H](CO)[C@@H](N)[C@H](O)[C@H]2O)OC2C[C@@H](N)[C@@H](O[C@H]3[C@H](O)[C@@H](O)[C@H](N)C[C@@H]3N)OC2[C@@H]1O (some centres unmarked) [Apramycin] | susceptible | 
28 | CN1[C@@H]2CC[C@H]1C[C@@H](OC(=O)C(CO)c1ccccc1)C2 (some centres unmarked) [Atropine] |  | susceptible
29 | CC1(C)S[C@@H]2[C@H](NC(=O)[C@H](NC(=O)N3CCNC3=O)c3ccccc3)C(=O)N2[C@H]1C(=O)O [Azlocillin] | susceptible | 
30 | CC(C)(C)CC(C)(C)c1ccc(OCCOCC[N+](C)(C)Cc2ccccc2)cc1 [Benzethonium Chloride] | susceptible | 
31 | OB(O)O [Boric acid] | susceptible | 
32 | [Cl][Cd][Cl] [Cadmium chloride] | susceptible | 

Reference: patent publication US10602743B2, “Method of inducing drought/salt tolerance using Bacillus megaterium” (Marrone Bio Innovations, Inc., priority 2012, dated 2020)
